ChEMBL document CHEMBL5724914, “Linking interpersonal differences in gut microbiota composition and drug biotransformation activity” (2024)

Legend:
[1] = human gut metagenome, 24 h, 2 µM
[2] = (§1) The drug is tested on Z-013 corresponding to rabbit gut metagenome with ENA study accession number: PRJEB37062 and ENA sample accession number: ERS12561813 for biotransformation under anaerobic condition. The drug concentrations were measured over 9 timepoints collected between 0 and 24 hours of incubation by liquid-chromatography-coupled mass spectrometry (LC–MS); settings: 2 µM
[3] = human gut metagenome, 24 h, 2 µM; remark: listed apart in the source
[4] = as §1, with “WLS-069” for “Z-013”, “human” for “rabbit”, “ERS12561748” for “ERS12561813”; settings: 2 µM
[5] = as §1, with “Z-010” for “Z-013”, “to” for “to rabbit gut”, “ERS12561810” for “ERS12561813”; settings: 2 µM
[6] = as §1, with “WLS-010” for “Z-013”, “human” for “rabbit”, “ERS12561743” for “ERS12561813”; settings: 2 µM
[7] = human gut metagenome, 24 h, 2 µM; remark: listed apart in the source
[8] = as §1, with “Z-004” for “Z-013”, “to” for “to rabbit gut”, “ERS12561804” for “ERS12561813”; settings: 2 µM
[9] = as §1, with “WLS-170” for “Z-013”, “human” for “rabbit”, “ERS12561762” for “ERS12561813”; settings: 2 µM
[10] = human gut metagenome, 24 h, 2 µM; remark: listed apart in the source
[11] = human gut metagenome, 24 h, 2 µM; remark: listed apart in the source
[12] = human gut metagenome, 24 h, 2 µM; remark: listed apart in the source
[13] = as §1, with “WLS-006” for “Z-013”, “human” for “rabbit”, “ERS12561741” for “ERS12561813”; settings: 2 µM
[14] = human gut metagenome, 24 h, 2 µM; remark: listed apart in the source
[15] = as §1, with “WLS-220” for “Z-013”, “human” for “rabbit”, “ERS12561769” for “ERS12561813”; settings: 2 µM
[16] = human gut metagenome, 24 h, 2 µM; remark: listed apart in the source
[17] = human gut metagenome, 24 h, 2 µM; remark: listed apart in the source
[18] = human gut metagenome, 24 h, 2 µM; remark: listed apart in the source
[19] = human gut metagenome, 24 h, 2 µM; remark: listed apart in the source
[20] = human gut metagenome, 24 h, 2 µM; remark: listed apart in the source
Further: call rule not given here.

| Bacterial Biotransformation [1] | Bacterial Biotransformation [2] | Bacterial Biotransformation [3] | Bacterial Biotransformation [4] | Bacterial Biotransformation [5] | Bacterial Biotransformation [6] | Bacterial Biotransformation [7] | Bacterial Biotransformation [8] | Bacterial Biotransformation [9] | Bacterial Biotransformation [10] | Bacterial Biotransformation [11] | Bacterial Biotransformation [12] | Bacterial Biotransformation [13] | Bacterial Biotransformation [14] | Bacterial Biotransformation [15] | Bacterial Biotransformation [16] | Bacterial Biotransformation [17] | Bacterial Biotransformation [18] | Bacterial Biotransformation [19] | Bacterial Biotransformation [20] | SMILES |
| --- | --- | --- | --- | --- | --- | --- | --- | --- | --- | --- | --- | --- | --- | --- | --- | --- | --- | --- | --- | --- |
| Compound NOT metabolized | Compound NOT metabolized | Compound metabolized | Compound metabolized | Compound NOT metabolized | Compound metabolized | Compound NOT metabolized |  | Compound NOT metabolized | Compound metabolized | Compound metabolized | Compound metabolized | Compound metabolized | Compound metabolized | Compound metabolized | Compound metabolized | Compound metabolized | Compound metabolized | Compound metabolized | Compound metabolized | Cc1nc2n(c(=O)c1CCN1CCC(c3noc4cc(F)ccc34)CC1)CCCC2O (centres undefined) [PALIPERIDONE] |
| Compound metabolized | Compound NOT metabolized | Compound metabolized | Compound metabolized | Compound metabolized |  | Compound metabolized | Compound metabolized | Compound metabolized | Compound metabolized | Compound metabolized | Compound metabolized | Compound metabolized | Compound metabolized | Compound metabolized | Compound metabolized | Compound metabolized | Compound metabolized | Compound metabolized | Compound metabolized | COc1ccc2[nH]c([S+]([O-])Cc3ncc(C)c(OC)c3C)nc2c1 (centres undefined) [OMEPRAZOLE] |
| Compound metabolized | Compound metabolized | Compound metabolized | Compound metabolized | Compound metabolized | Compound metabolized | Compound metabolized | Compound metabolized | Compound metabolized | Compound metabolized |  |  | Compound metabolized |  | Compound metabolized | Compound metabolized |  | Compound metabolized | Compound metabolized |  | COc1c2occc2cc2ccc(=O)oc12 [METHOXSALEN] |

The next lines start with the compound.

| SMILES | Bacterial Biotransformation [1] | Bacterial Biotransformation [2] | Bacterial Biotransformation [3] | Bacterial Biotransformation [4] | Bacterial Biotransformation [5] | Bacterial Biotransformation [6] | Bacterial Biotransformation [7] | Bacterial Biotransformation [8] | Bacterial Biotransformation [9] | Bacterial Biotransformation [10] | Bacterial Biotransformation [11] | Bacterial Biotransformation [12] | Bacterial Biotransformation [13] | Bacterial Biotransformation [14] | Bacterial Biotransformation [15] | Bacterial Biotransformation [16] | Bacterial Biotransformation [17] | Bacterial Biotransformation [18] | Bacterial Biotransformation [19] | Bacterial Biotransformation [20] |
| --- | --- | --- | --- | --- | --- | --- | --- | --- | --- | --- | --- | --- | --- | --- | --- | --- | --- | --- | --- | --- |
| CN1C(=O)CCS(=O)(=O)C1c1ccc(Cl)cc1 (centres undefined) [CHLORMEZANONE] | Compound NOT metabolized | Compound NOT metabolized | Compound NOT metabolized | Compound NOT metabolized | Compound NOT metabolized | Compound NOT metabolized | Compound NOT metabolized | Compound NOT metabolized | Compound metabolized | Compound NOT metabolized | Compound metabolized | Compound NOT metabolized | Compound metabolized | Compound NOT metabolized | Compound NOT metabolized | Compound NOT metabolized | Compound NOT metabolized | Compound NOT metabolized | Compound NOT metabolized | Compound NOT metabolized |
| O=C1NCC2(CCN(CCc3ccccc3)CC2)O1 [FENSPIRIDE] | Compound NOT metabolized | Compound NOT metabolized | Compound NOT metabolized | Compound NOT metabolized | Compound NOT metabolized | Compound NOT metabolized | Compound NOT metabolized | Compound NOT metabolized | Compound NOT metabolized | Compound NOT metabolized | Compound NOT metabolized | Compound metabolized | Compound NOT metabolized | Compound metabolized | Compound NOT metabolized | Compound NOT metabolized | Compound NOT metabolized | Compound NOT metabolized | Compound metabolized | Compound NOT metabolized |
| CN(C)CCc1c[nH]c2ccc(Cn3cncn3)cc12.O=C(O)c1ccccc1 [RIZATRIPTAN BENZOATE] | Compound NOT metabolized | Compound NOT metabolized | Compound NOT metabolized | Compound NOT metabolized | Compound NOT metabolized | Compound NOT metabolized | Compound NOT metabolized | Compound NOT metabolized |  | Compound NOT metabolized | Compound NOT metabolized | Compound NOT metabolized | Compound NOT metabolized | Compound NOT metabolized | Compound NOT metabolized | Compound NOT metabolized | Compound NOT metabolized | Compound NOT metabolized | Compound NOT metabolized | Compound NOT metabolized |
| CC(C)c1c(C(=O)Nc2ccccc2)c(-c2ccccc2)c(-c2ccc(F)cc2)n1CC[C@@H](O)C[C@@H](O)CC(=O)O [ATORVASTATIN] | Compound NOT metabolized | Compound NOT metabolized | Compound NOT metabolized | Compound metabolized | Compound metabolized |  | Compound metabolized | Compound NOT metabolized | Compound metabolized | Compound NOT metabolized | Compound NOT metabolized | Compound metabolized | Compound metabolized | Compound metabolized | Compound NOT metabolized | Compound metabolized | Compound NOT metabolized | Compound metabolized | Compound metabolized | Compound metabolized |
| Cc1nc2n(c(=O)c1CCN1CCC(c3noc4cc(F)ccc34)CC1)CCCC2 [RISPERIDONE] | Compound metabolized | Compound metabolized | Compound metabolized | Compound metabolized | Compound metabolized | Compound metabolized |  | Compound metabolized | Compound metabolized | Compound metabolized | Compound NOT metabolized | Compound metabolized | Compound metabolized | Compound metabolized | Compound metabolized | Compound metabolized | Compound metabolized | Compound metabolized | Compound metabolized | Compound NOT metabolized |
| CC[C@H](C)C(=O)O[C@H]1C[C@@H](C)C=C2C=C[C@H](C)[C@H](CC[C@@H]3C[C@@H](O)CC(=O)O3)[C@H]21 [LOVASTATIN] | Compound NOT metabolized | Compound NOT metabolized |  | Compound NOT metabolized | Compound NOT metabolized | Compound NOT metabolized | Compound NOT metabolized | Compound NOT metabolized | Compound NOT metabolized | Compound NOT metabolized | Compound NOT metabolized | Compound NOT metabolized | Compound NOT metabolized | Compound NOT metabolized | Compound NOT metabolized | Compound NOT metabolized | Compound NOT metabolized | Compound NOT metabolized | Compound NOT metabolized | Compound NOT metabolized |
